# From patent US20100062970A1, “SYNTHESIS OF PROPYL PHENOXY ETHERS AND USE AS DELIVERY AGENTS” (Emisphere Technologies Inc., priority 2006, published 2010)
# System: whole blood glucose
# Assay: In vivo delivery of insulin to fasted rats via oral gavage (whole blood glucose)
# Set-up: species or system rat
# Conditions: male Sprague-Dawley rats, delivery agent 200 mg/kg with insulin (human recombinant) 0.5 mg/kg
# Protocol: Insulin (human recombinant) was obtained from ICN Biomedicals (Aurora, Ohio) as a bulk powder. To prepare stock solutions, insulin was dissolved in deionized water (pH˜6.5) to obtain a concentration of 15 mg/ml. Stock solutions were kept frozen at −20° C. in 1.0-ml aliquots until used. For dosing solutions, delivery agent was dissolved in deionized water to obtain a final concentration of 200 mg/ml. The free acid form of delivery agent was converted to the sodium salt by adding one equivalent of sodium hydroxide. Solutions were vortexed, sonicated, and heated, and if necessary, additional sodium hydroxide was added in μl quantities to achieve uniform solubility. Solutions were adjusted to a pH of 3.5-8.5 by the addition of either hydrochloric acid or sodium hydroxide. Insulin stock (typically 66.7 μls) was then added to the delivery agent solution to obtain a final concentration of 0.5 mg/ml. After solubilization and drug addition, solutions were brought to final volume by the addition of deionized water.
# Insulin was administered to male, Sprague-Dawley rats either alone or in combination with an Emisphere delivery agent by oral gavage (PO). Rats were fasted for 18-24 hours prior to dosing. For dosing, a Rusch 8 French catheter was cut to 11 cm in length and adapted to fit a 1-ml syringe. The syringe was filled with dosing solution and the catheter was wiped dry of excess solution. The catheter was inserted into the rat mouth and fed down the esophagus (10.0 cm). The dosing solution was delivered by pressing the syringe plunger while holding the rat in an upright position.
# During blood sampling, rats were exposed briefly (˜10 sec) to carbon dioxide until prostrate, immediately prior to each sampling time point. For blood sampling, a 77-mm capillary tube was inserted into the retroorbital sinus. Typically, blood samples were collected prior to dosing (time 0) and at 15, 30, 45, and 60 minutes after dosing. Samples were collected into Capiject® tubes (Terumo Corporation, Tokyo, Japan) containing a clot activator (red top, serum separator tubes). Samples were allowed to clot for ˜20 min at 4° C. After clotting, samples were centrifuged at 10,000 rpm for 4 minutes at 6° C. in order to separate the serum. Serum was collected into eppendorf tubes and frozen at −20° C. until assayed.
# In order to determine the pharmacodynamic response, a hand-held glucometer (OneTouch Ultra, LifeScan® (Johnson & Johnson, New Brunswick, N.J.)) was used to measure whole blood glucose after administration of insulin or insulin and delivery agent. Samples were collected either from the retroorbital sinus (see Sample collection and handling: Insulin) or from the tail artery (i.e. tail clip). For tail clipping, the tip of the tail was severed approximately 5 mm from the tip using a scalpel blade. After discarding the first drop of blood, a small sample (˜5-10 μl) was touched to the glucometer test strip (OneTouch Ultra, LifeScan) and a blood glucose reading was generated by the meter. For each subsequent sampling time point, the clot formed at the tip of the tail was broken up and a fresh sample was collected. Typically, samples were collected prior to dosing (time 0) and at 15, 30, 45, and 60 minutes after dosing.
# Concentrations of insulin were quantified in rat serum using a sandwich-type ELISA (kit; Diagnostic Systems Laboratories, Inc., Webster, Tex.). The calibrated assay range was 12.5-250.0 μlU/mL. Serum from rats was obtained internally from stock animals and used to prepare calibration standards and low and high quality control samples (LQC, HQC). The low and high quality control samples for the second curve were prepared at 30 and 150 μlU/mL, respectively. Calibration standards were prepared fresh daily and quality control samples were stored at a nominal temperature of −20° C. Concentration values (test samples) were read from the standard curve, averaged for each time point (n=5), and plotted as mean serum concentration of insulin (±SEM) versus time. […]
row,Compound,% Glucose Cmin (Rat)
1,"O=C(O)CCOc1ccccc1Cl [Compound 1, 3-2-Chloro-phenoxy-propionic acid]",−47.0%
2,"Cc1ccc(OCCC(=O)O)cc1C [Compound 2, 3-(3,4-Dimethyl-phenoxy)-propionic acid]",−48.2%
3,"Cc1cc(C)cc(OCCC(=O)O)c1 [Compound 3, 3-(3,5-Dimethyl-phenoxy)-propionic acid]",−16.6%
4,"Cc1ccc(C)c(OCCC(=O)O)c1 [Compound 4, 3-(2,5-Dimethyl-phenoxy)-propionic acid]",−39.6%
5,"Cc1cccc(OCCC(=O)O)c1C [Compound 5, 3-(2,3-Dimethyl-phenoxy)-propionic acid]",−22.2%
6,"Cc1cccc(OCCC(=O)O)c1 [Compound 6, 3-m-Tolyloxy-propionic acid]",−29.3%
7,"Cc1cccc(C)c1OCCC(=O)O [Compound 7, 3-(2,6-Dimethyl-phenoxy)-propionic acid]",−42.1%
8,"Cc1ccccc1OCCC(=O)O [Compound 8, 3-o-Tolyloxy-propionic acid]",−24.2%
9,"Cc1ccc(OCCC(=O)O)c(C)c1 [Compound 9, 3-(2,4-Dimethyl-phenoxy)-propionic acid]",−40.3%
